The source of these data is US9863938B2, “Synthetic antibodies” (ARIZONA BOARD OF REGENTS, A BODY CORPORATE OF THE STATE OF …, priority 2006, dated 2018).

The target in data set [1] is T1, transferrin (Homo sapiens, UniProt P02787). The experiment in a line: SPR steady-state solution phase KD of candidate affinity elements, transferrin immobilized on Biacore T100 chip. In kind it is binding. How it is done: Transferrin was immobilized by amine-coupling to the carboxyl-functionalized surface of a Biacore T100 CMS Dextran SPR chip as illustrated in FIG. 11. A 1:1 mixture of EDC (0.4M 1-ethyl-3-(3-dimethylaminopropyl)-carbodiimide in water) and NHS (0.1M N-hydroxysuccinimide in water) was applied 300 at a flow rate of 5 to 10 μl/min for a contact time of about 6 to 10 minutes to activate the surface by conjugating […] 306 to the surface-exposed carboxyl groups. Transferrin 25 μg/ml in immobilization buffer selected for correct pH was then applied 302 at a flow rate of 5 to 10 μl/min for a contact time of about 5 to 10 minutes, allowing the amine functionality on the transferrin 308 to displace the activated NHS ester and bond to the surface via an amide bond. Finally, ethylene diamine (1 M ethylene diamine-HCl at pH 8.5) was applied at a flow rate of 5 to 10 μl/min for a contact time of about 6 to 7 minutes to deactivate any remaining reactive groups on the dextran chip surface. Flow rates and contact times are adjusted as necessary to provide the surface concentration of target desired for the intended application, and may vary by target. In general, for evaluating whether binding occurs, it is preferable to immobilize a relatively large quantity of target, and higher flow rates and/or longer contact times may be used. For determining kinetics, it is preferable to limit the amount of target immobilized so as to minimize rebinding and avidity effects, and lower flow rates and/or contact times may be used.
Candidate affinity elements for the transferrin synbody TRF 19 (SEQ ID NO: 1), TRF21 (SEQ ID NO: 3), TRF23 (SEQ ID NO: 5), TRF24 (SEQ ID NO: 6), TRF25 (SEQ ID NO: 7), and TRF26 (SEQ ID NO: 8) were individually evaluated for solution phase KD with respect to transferrin by SPR analysis. Because the off rates for these polypeptides were very high, KD values were estimated by measuring steady-state response for at least five concentrations in a two-fold dilution series, each concentration tested in duplicate. For each experiment, response data were processed using a reference surface to correct for bulk refractive index changes and any nonspecific binding. Data were also double referenced using responses from blank running buffer injections. Each experiment was conducted at 25° C. using PBST (0.01M Phosphate Buffered Saline, 0.138M NaCl, 0.0027M KCl, 0.05% surfactant Tween20, pH 7.4) as the running buffer on a Biacore T100 instrument. Analytes were injected for 60 s at a flow rate of 30 μl/min. The antigen surfaces were regenerated with 30 s consecutive pulses of NaOH/NaCl (50 mM NaOH in IM NaCl) and Glycine (10 mM glycine —HCl, pH 2.5).
On the technique in general: SPR reads the build-up and loss of mass on a sensor chip optically.

Data set [2] deals with 8,000 human proteins (GST fusion). The experiment in a line: Invitrogen Protoarray Human Protein Microarray (8,000 features), fluorescence intensity of bound ligand. In kind it is binding. How it is done: Two biotinylated anti-TRF synbodies (SYN23-26 and SYN 21-22) were applied to a protein microarray having 8,000 features (Invitrogen Protoarray Human Protein Microarray v. 4.0 for immune response biomarker profiling), each feature comprising a distinct human protein (GST fusion) adsorbed to a nitrocellulose coated slide. Application of the synbodies to the microarray was performed in accordance with manufacturer instructions: (see ProtoArray Human Protein Microarray, Invitrogen, Catalog no. PAH052401, Version B, 15 Dec. 2006, 25-0970, Users Manual.) After blocking the array with 1% BSA/PBS/0.1% Tween for 1 hour at 4 C with gentle shaking, 120 μl of probing buffer (1×PBS, 5 mM mgCl2, 0.5 mM DTT, 0.05% Triton X-100, 5% glycerol, 1% BSA) with synbody was applied to the array. The prescribed cover slip was placed over the array and adjusted to remove air bubbles. The array was incubated in a 50 ml conical tube, printed side up, for 1.5 hours at 4 C without shaking The array was then removed from the conical tube inserted diagonally into the array chamber, kept on ice. 8 ml probing buffer was added to the chamber wall. The cover slip was removed and the array was incubated in probing buffer for 1 minute on ice. […] The array was dried in the dark for 60 minutes at room temperature, after which it was scanned using a fluorescent microarray scanner and data was taken and analyzed.

For another data set, the target named is T2, human α-thrombin (Homo sapiens, UniProt P00734).
T2 construct: concentrations of human α-thrombin ranging from 0 to 100 nM
The experiment in a line: ELISA-type assay on wells coated with thrombin. In kind it is binding. Particulars: read-out: Dissociation constant estimated. On the procedure:
Binding to thrombin was evaluated in an ELISA-type assay. Wells of a 96 well plate were coated with 100 μL of 30 μg/mL human α-thrombin and incubated at 4 C overnight. The plate was washed twice with DDI H2O and passivated with 3% BSA in IX PBS buffer for 1 hour. The plate was shaken out and 50 μL of varying concentrations of analyte (DNA tile synbody, DNA tile with each aptamer with the other not present, and each aptamer alone, respectively) were incubated at RT for 1 hour. DNA tiles were biotin-modified at the 5′ end of one of the distal DNA strands 346 (see FIG. 26(a)). The plate was rinsed 10 times in IXPBS and 50 μL of 1:1000 dilution of streptavidin-HRP in 0.1% BSA in IX PBS was pipetted and incubated for 1 hour at RT. The plate was again rinsed and 50 μL of TMB was added and incubated at RT for 15 minutes. 50 μL of 0.5M HCl was added and the plate was read immediately. Results are shown in FIG. 27 for the DNA tile synbody 350; the DNA tile with Apt1 (SEQ ID NO: 20) but not Apt2 (SEQ ID NO: 21) present 352; the DNA tile with Apt2 but not Apt1 (SEQ ID NO: 20) present 356; Apt1 (SEQ ID NO: 20) alone 354; and Apt2 (SEQ ID NO: 21) alone 358. Dissociation constant values estimated from this assay were about 1 nM for the DNA tile synbody, about 10 nM for Apt1 (SEQ ID NO: 20) alone, and more than 1 μM for Apt2 (SEQ ID NO: 21) alone.

Data set [3] has as its target T1, transferrin. The experiment in a line: SPR analysis of 1:1 polypeptide pairs for binding to distinct sites on immobilized target. The conditions noted are these: SPR response of pair mixture versus single polypeptides. From the text:
The transferrin target was immobilized on a Biacore T100 SPR chip, and candidate polypeptides were applied in 1:1 mixtures in pairs and response data obtained, in accordance with the methods described in Example 4 above.

Where [4] appears, read: estimated from steady-state SPR response, 25° C., PBST pH 7.4, read-out: Solution Phase KD.
Setting [5] is: restates Table 3, read-out: solution phase affinities for transferrin, range of KD.

Where two headings read alike, the source gives them in different places. Bridge positions count the residues as written; N and C are the ends. Ends that are not written are not given here. I, II: the chains in the order shown.

T1 sequence (P02787 20-698, species assumed): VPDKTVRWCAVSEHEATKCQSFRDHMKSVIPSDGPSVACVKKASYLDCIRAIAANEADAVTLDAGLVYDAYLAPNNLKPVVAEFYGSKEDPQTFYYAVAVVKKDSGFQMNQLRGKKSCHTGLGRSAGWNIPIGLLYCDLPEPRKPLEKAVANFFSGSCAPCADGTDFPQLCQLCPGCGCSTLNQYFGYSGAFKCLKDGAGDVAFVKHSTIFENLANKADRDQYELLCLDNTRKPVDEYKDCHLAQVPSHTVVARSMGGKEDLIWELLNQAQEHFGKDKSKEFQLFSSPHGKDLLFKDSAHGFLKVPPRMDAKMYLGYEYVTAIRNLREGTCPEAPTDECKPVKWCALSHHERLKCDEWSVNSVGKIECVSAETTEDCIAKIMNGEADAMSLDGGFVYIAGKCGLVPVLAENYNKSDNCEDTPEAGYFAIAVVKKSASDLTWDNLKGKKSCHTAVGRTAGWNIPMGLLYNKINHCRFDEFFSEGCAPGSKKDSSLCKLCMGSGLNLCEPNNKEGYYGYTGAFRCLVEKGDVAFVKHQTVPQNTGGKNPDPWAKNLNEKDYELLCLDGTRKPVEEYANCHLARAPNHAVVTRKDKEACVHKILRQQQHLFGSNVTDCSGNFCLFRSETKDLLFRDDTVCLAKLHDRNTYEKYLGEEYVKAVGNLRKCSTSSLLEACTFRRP

With APYAPQQIHYWSTLGFKGSC [TRF25], the Kd on transferrin [1] (setting [4]) is ~60 µM.
“I: H-FRGWAHIFFGPHVIYRGGSGKC / II: H-AHKVVPQRQIRHAYNRYGSG (amide I:21-II:C) [SYN23-26]”: in data set [2], the “highest affinity target from library of 8,000” value is “PCCA” and the “targets bound with intensities higher than that of 1C10 for TRF” value is recorded as “seven targets”.
Take “5′-AGTCCGTGGTAGGGCAGGTTGGGGTGACT-3′ [Apt1]”: in the data set with human α-thrombin, the Kd was ~0.01 µM.
For QYHHFMNLKRQGRAQAYGSC [TRF21], at transferrin [1] (setting [4]), the Kd was ~60 µM.
Turning to 5′-GGTTGGTGTGGTTGG-3′ [Apt2], in the data set with human α-thrombin, the Kd was > 1 µM.
With AHKVVPQRQIRHAYNRYGSC [TRF26], on transferrin [1] (setting [5]), the Kd lay within 50 to 100 µM. On transferrin [3], the “binding to distinct sites on target” value was “bind distinct sites on transferrin”.
On to FRGWAHIFFGPHVIYRGGSC [TRF23], for which the Kd is ~50 µM at transferrin [1] (setting [4]) and 50 to 100 µM on transferrin [1] (setting [5]). In addition, the “binding to distinct sites on target” value at transferrin [3] is reported as “bind distinct sites on transferrin”.
